# Source: US9744119B2, “Cosmetic composition and method of preparation” (Momentive Performance Materials Inc., priority 2014, dated 2017)
# Assay: Differential scanning calorimetry (DSC) of niacinamide and its 2% blends with silicones
# Type: physicochemical
# Method: To further understand the difference in interaction between ionically modified silicone and control/Silsoft silicone gel, differential scanning calorimetry (DSC) studies were carried out on pure active-niacinamide, and its blends with silsoft silicone and ionically modified silicone. 2% Niacinamide blends were prepared by thoroughly mixing Niacinamide with above silicones using spatula followed by high-speed mixing in Flack-Tek for 5 minutes. The free Niacinamide and Niacinamide loaded Silsoft silicone gel and ionically modified silicone were subjected to a heating and cooling cycle under nitrogen atmosphere. The DSC thermograms are show in FIG. 2.
smiles,measurement,setting,value
"NC(=O)c1cccnc1 [Niacinamide, niacinamide]",ΔH (heat change associated with the melting of Niacinamide),nitrogen atmosphere,218.7 J/g
same,% Crystallinity (crystalline Niacinamide),relative to pure niacinamide,100%
